According to US9566347B2, “Peptides and methods using same” (The Trustees of the University of Pennsylvania, priority 2011, dated 2017):
Values belong to the molecule of their own block, whether it stands above or below them. Positions of bridges follow the written chain, without caps; N, C: chain ends. Residues, ends and D or L forms follow the SMILES beside them. No end group written: not given here.

How the values were obtained:
[1] = target: soluble hSIRP-alpha (Homo sapiens, UniProt P78324); assay: Binding of polypeptide-coated beads to soluble hSIRP-alpha by flow cytometry
Excerpt: FIG. 4 illustrates binding and phagocytosis inhibition of peptides in relation to human-SIRP-alpha. Affinity of polypeptides coated beads binding to soluble hSIRP-alpha based on flow cytometry. Saturation binding fit gave the indicated dissociation constant, Kd.
(§1) Synthesis of the three designs and Scrambled-peptides with or without biotin attached via either an aminohexanoic acid linker (C6) or a PEG linker, enabled functional testing of binding to soluble hSIRP-alpha as well as inhibition of nanobead phagocytosis. […] The 10-aa FG-hairpin was synthesized without attachment of biotin for use as a soluble inhibitor of hSIRP-alpha binding to polypeptide beads. […] While conformational constraints the minimal FG-hairpin combined with the likely lack of a stable structure underscores the utility of at least some backbone flexibility.

[2] = system: THP-1 cells; assay: Phagocytosis assay of peptide-coated opsonized nanobeads in THP-1 cell line; format: cell-based; conditions: opsonized beads
Description: FIG. 3A illustrates a two color experiment in which nanoparticles (or cells) are mixed and injected into the same mouse after labeling with or without the peptide with distinct fluorescent red dye (PKH26) or far-red (DiD). 50 μl of blood was periodically sampled from the eyes, and flow cytometry analysis of the decay in nanoparticle (or cell) numbers was used to calculate the time-dependent ‘persistence ratio’ in each mouse. Colors were labeled as 1 and 2. FIG. 3B is a graph illustrating an experiment where 160 nm polystyrene beads coated with streptavidin were bound to biotinylated versions of synthetic FG-peptide, or else negative controls of either scrambled peptide or PEG. Beads were opsonized with anti-streptavidin and then injected. n=6 mice. FIG. 3C is a graph illustrating the inverse correlation between the in vivo ratio of beads with or without peptide at 35 min and the inhibition of phagocytosis in vitro at 45 min for 160 nm beads. FIG. 3D is a graph illustrating macrophage SIRPa1 tyrosine phosphorylation upon contact with FG-peptide bound to opsonized beads and phagocytosed by THP-1 cells. From cell lysates, SIRP-alpha was immunoprecipitated and immunoblotted for quantitation of phosphotyrosine per total SIRP-alpha (n=3). Avg.±SEM for all results.
FIG. 4 illustrates binding and phagocytosis inhibition of peptides in relation to human-SIRP-alpha. […]

[3] = target: hSIRP-alpha (Homo sapiens, UniProt P78324); assay: Soluble peptide inhibition of hSIRP-alpha binding to polypeptide beads
Excerpt: as §1

[4] = Two-color persistence of opsonized nanobeads in circulation of NSG mice; format: in vivo; conditions: 160 nm opsonized streptavidin polystyrene beads
Description: FIG. 3A illustrates a two color experiment in which nanoparticles (or cells) are mixed and injected into the same mouse after labeling with or without the peptide with distinct fluorescent red dye (PKH26) or far-red (DiD). 50 μl of blood was periodically sampled from the eyes, and flow cytometry analysis of the decay in nanoparticle (or cell) numbers was used to calculate the time-dependent ‘persistence ratio’ in each mouse. Colors were labeled as 1 and 2. FIG. 3B is a graph illustrating an experiment where 160 nm polystyrene beads coated with streptavidin were bound to biotinylated versions of synthetic FG-peptide, or else negative controls of either scrambled peptide or PEG. Beads were opsonized with anti-streptavidin and then injected. n=6 mice. […] Avg.±SEM for all results.

[5] = system: spleen macrophages; conditions: NSG mice, near-infrared particles
Description: To assess whether the particles had been taken up by spleen macrophages in NSG mice, tissue sections were immunostained for macrophages and imaged by fluorescence microscopy.

Sequence of soluble hSIRP-alpha (P78324 31-373 limits assumed): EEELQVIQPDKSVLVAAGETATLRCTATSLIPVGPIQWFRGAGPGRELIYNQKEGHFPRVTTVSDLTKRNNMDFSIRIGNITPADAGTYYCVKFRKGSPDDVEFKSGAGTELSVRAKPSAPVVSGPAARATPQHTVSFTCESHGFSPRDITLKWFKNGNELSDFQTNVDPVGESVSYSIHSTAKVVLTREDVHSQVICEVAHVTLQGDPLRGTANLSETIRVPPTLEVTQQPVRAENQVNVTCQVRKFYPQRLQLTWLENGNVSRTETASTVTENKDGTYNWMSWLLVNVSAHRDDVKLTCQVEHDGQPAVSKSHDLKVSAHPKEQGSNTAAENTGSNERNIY
Sequence of hSIRP-alpha (P78324 31-373 limits assumed): as above

- affinity / binding to hSIRP-alpha (in words) ([1]; peptide-coated beads, soluble hSIRP-alpha): no significant affinity
Molecule: CEVTELTREGEC (disulfide 1-12 (inferred)) [FG-SS-peptide, 12-aa peptide with Cys substitution intended to disulfide-stabilize the β-hairpin]
- inhibition of nanobead phagocytosis [2]: no statistically significant inhibition of phagocytosis

Molecule: CC(C)C[C@H](NC(=O)[C@H](CCC(=O)O)NC(=O)[C@@H](NC(=O)[C@@H](NC(=O)[C@@H](N)CCC(=O)O)C(C)C)[C@@H](C)O)C(=O)N[C@H](C(=O)N[C@@H](CCCNC(=N)N)C(=O)N[C@@H](CCC(=O)O)C(=O)NCC(=O)N[C@@H](CCC(=O)O)C(=O)O)[C@@H](C)O [FG-hairpin, EVTELTREGE] (H-EVTELTREGE-OH; N-terminus and C-terminus assumed)
- Ki [3]: 0.1 to 0.2 µM

Molecule: GNYTCEVTELTREGETIIELK [FG-peptide]
- circulation of nanoparticles [4]: prolong the circulation of nanoparticles
- Kd ([1]; saturation binding fit, biotinylated peptide on streptavidin beads, C6 or PEG linker, read-out: affinity for SIRP-alpha (Kd)): 0.11 to 0.16 µM
- particle uptake, whole organ imaging [5]: reducing but not eliminating uptake
